Measured values: PMC10765126, “High-throughput computational screening and in vitro evaluation identifies 5-(4-oxo-4H-3,1-benzoxazin-2-yl)-2-[3-(4-oxo-4H-3,1-benzoxazin-2-yl) phenyl]-1H-isoindole-1,3(2H)-dione (C3), as a novel EGFR—HER2 dual inhibitor in gastric tumors” (Oncology Research, 2023)

Assays:
[1] = molecular target: EGFR (Homo sapiens, UniProt P00533, L858R/T790M); test: luminescence kinase assay (Kinase-Glo Max, BPS Bioscience EGFR (T790M/L858R) kit, […] ATP); type: biochemical
[2] = molecular target: T1, HER2 (Homo sapiens, UniProt P04626); test: luminescence kinase assay (Kinase-Glo Max, BPS Bioscience HER2 kit, […] ATP); type: biochemical
T1 construct: gene ERBB2
T1 sequence (P04626 23-1255): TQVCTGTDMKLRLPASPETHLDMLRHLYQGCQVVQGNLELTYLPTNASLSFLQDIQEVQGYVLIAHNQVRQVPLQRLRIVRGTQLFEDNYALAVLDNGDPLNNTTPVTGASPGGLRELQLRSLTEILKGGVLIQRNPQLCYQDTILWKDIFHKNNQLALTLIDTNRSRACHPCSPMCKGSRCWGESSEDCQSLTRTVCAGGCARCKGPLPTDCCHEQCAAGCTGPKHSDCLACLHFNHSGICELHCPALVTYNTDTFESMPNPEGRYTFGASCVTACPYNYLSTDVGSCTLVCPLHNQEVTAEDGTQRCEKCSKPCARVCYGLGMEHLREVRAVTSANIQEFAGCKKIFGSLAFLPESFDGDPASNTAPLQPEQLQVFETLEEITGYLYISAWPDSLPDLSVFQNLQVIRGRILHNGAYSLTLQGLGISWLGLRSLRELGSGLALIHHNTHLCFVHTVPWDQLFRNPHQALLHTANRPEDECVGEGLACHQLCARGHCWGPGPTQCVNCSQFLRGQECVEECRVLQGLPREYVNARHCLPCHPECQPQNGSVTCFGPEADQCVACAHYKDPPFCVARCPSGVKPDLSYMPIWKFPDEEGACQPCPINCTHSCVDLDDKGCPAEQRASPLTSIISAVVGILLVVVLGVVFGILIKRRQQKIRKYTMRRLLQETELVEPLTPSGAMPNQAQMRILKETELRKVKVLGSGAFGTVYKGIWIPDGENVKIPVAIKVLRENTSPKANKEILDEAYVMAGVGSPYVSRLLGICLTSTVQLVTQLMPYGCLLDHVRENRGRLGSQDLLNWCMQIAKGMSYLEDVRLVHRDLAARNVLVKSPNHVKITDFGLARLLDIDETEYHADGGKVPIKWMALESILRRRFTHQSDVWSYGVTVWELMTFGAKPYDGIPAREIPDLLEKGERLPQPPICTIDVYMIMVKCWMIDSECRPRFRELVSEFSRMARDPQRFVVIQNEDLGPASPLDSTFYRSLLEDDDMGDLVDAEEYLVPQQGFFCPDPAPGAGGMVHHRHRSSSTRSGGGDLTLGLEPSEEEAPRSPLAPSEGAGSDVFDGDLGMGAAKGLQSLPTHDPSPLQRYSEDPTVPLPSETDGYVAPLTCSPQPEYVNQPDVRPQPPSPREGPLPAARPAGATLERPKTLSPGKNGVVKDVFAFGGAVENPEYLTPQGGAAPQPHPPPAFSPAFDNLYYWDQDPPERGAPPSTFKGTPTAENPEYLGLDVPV

Chain of EGFR (P00533 696-1210 T790M/L858R limits assumed): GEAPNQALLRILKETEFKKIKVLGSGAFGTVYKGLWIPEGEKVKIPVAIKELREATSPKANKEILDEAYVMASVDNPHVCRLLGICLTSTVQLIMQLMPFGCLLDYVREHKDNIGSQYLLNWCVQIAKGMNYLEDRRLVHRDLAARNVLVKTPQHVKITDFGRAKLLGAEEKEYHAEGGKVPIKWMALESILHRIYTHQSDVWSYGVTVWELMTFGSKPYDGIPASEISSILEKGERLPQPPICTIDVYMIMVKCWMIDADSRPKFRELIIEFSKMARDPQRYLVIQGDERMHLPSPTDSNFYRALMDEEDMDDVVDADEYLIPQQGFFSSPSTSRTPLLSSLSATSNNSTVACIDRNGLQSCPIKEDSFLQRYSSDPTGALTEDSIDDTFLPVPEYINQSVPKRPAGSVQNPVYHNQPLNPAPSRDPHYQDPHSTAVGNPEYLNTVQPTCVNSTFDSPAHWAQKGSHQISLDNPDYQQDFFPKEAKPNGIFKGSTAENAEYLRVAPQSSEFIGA

Q: For `O=C1c2ccc(-c3nc4ccccc4c(=O)o3)cc2C(=O)N1c1cccc(-c2nc3ccccc3c(=O)o2)c1` [C3, 5-(4-oxo-4H-3,1-benzoxazin-2-yl)-2-[3-(4-oxo-4H-3,1-benzoxazin-2-yl)phenyl]-1H-isoindole-1,3(2H)-dione], which IC50 [1] is on record?
A: 0.0372 µM

Q: And the IC50 [2]?
A: 0.0458 µM
